For 21 molecules, IC50 and AC50 results are on record in patent US20250326748A1, “COMPOUNDS AND METHODS FOR MODULATING SPLICING” (REMIX THERAPEUTICS INC., priority 2022, published 2025).

Where two headings read alike, the source gives them in different places.

Holding throughout (type): cell-based, human
The test system of assay [1] is Target C mRNA. Put plainly: Splicing RT-qPCR panel, Target C canonical junction (CJ) mRNA. The settings on record: Homo sapiens, read-out: Target C CJ (decrease in CJ mRNA levels, IC50). The essentials:
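A673 cells (DMEM, 10% FBS) or K562 cells (IMDM, 10% FBS) treated 24 h at 37 °C with an 11-point 3-fold dilution, top 10 uM, DMSO ≤0.25%. Canonical-junction mRNA quantified in lysates by RT-qPCR, normalised to GAPDH, GUSB or PPIA and to DMSO (2^−ΔΔCt), then converted to % response.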
(Quantitative PCR measures a nucleic acid by following its amplification.)

Assay [2] relates to HTT mRNA. Put plainly: Splicing RT-qPCR assay, HTT canonical (CJ) and alternative (AJ) junction mRNA. The settings on record: Homo sapiens; for IC50: canonical junction mRNA; for AC50: alternative junction mRNA, read-out: HTT AJ (AC50, increase in AJ mRNA). In a few lines:
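Cmpd 24 h, 37 °C/5% CO2; 11-pt 3x serial dilution from 10 uM final; DMSO max 0.25%. Cells: A673 (DMEM/10% FBS, pre-adhered 24 h) or K562 (IMDM/10% FBS). Lyse, DNase I, then 1-step RT-qPCR for CJ and AJ; housekeeping-normalized.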

The subject of assay [3] is Target C. Put plainly: HiBiT protein abundance assay, Target C (K562 HiBiT knock-in). The settings on record: HiBiT knock-in cells, 24 hours. The essentials: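 K562 HiBiT knock-in cells (10000/well) in IMDM + 1% FBS were treated for 24 h at 37° C. with a 10-point 3-fold dilution series (top 10 μM final), with DMSO ≤0.25%. Unmodified K562 served as baseline. HiBiT lytic luminescence was normalized to controls, and IC50 was interpolated at 50% from a four-parameter fit.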

The mark [4] stands for this setting: 24 h, RT-qPCR, A673 or K562 cells, 24 hours treatment, read-out: HTT CJ (IC50, decrease in CJ mRNA).
Setting [5] is: qPCR panel, read-out: HTT CJ (decrease in CJ mRNA levels, IC50).
The mark [6] stands for this setting: RT-qPCR, A673 or K562 cells, 24 hours treatment.

As a reminder, the IC50 is the concentration at which inhibition is half-maximal. The AC50 is the midpoint of the concentration-response curve, whichever way the signal moves. For the molecule `Cn1cc2cc(-c3ccc4cc(N5CC[C@H](NC(C)(C)C)C5)cnc4n3)c(O)cc2n1` (single isomer, unassigned) [Compound 200], the IC50 in assay [1], in assay [2] (setting [4]), in assay [2] (setting [5]) and in assay [3] was 1000 to 10000 nM each time. The half-maximal activity concentration (AC50) in assay [2] (setting [6]) was 1000 to 10000 nM.
For the molecule `CNC1CCN(c2cnc3nc(-c4cc(F)c5nc(C)cn5c4)ccc3c2)C1` (stereo not drawn) [Compound 100, 1-(7-{8-fluoro-2-methylimidazo[1,2-a]pyridin-6-yl}-1,8-naphthyridin-3-yl)-N-methylpyrrolidin-3-amine], the IC50 in assay [1], in assay [2] (setting [4]), in assay [2] (setting [5]) and in assay [3] was 100 to 1000 nM each time. Moreover, the concentration at half-maximal activity (AC50) in assay [2] (setting [6]) fell in the range of 100 to 1000 nM.
On to `Cn1cc2cc(-c3cnc4nc(N5CCNCC5)cc(Cl)c4c3)cc(F)c2n1` [Compound 101, 4-chloro-6-(7-fluoro-2-methyl-2H-indazol-5-yl)-2-(piperazin-1-yl)-1,8-naphthyridine], for which the IC50 in assay [1] was more than 10000 nM; in assay [2] (setting [4]), 1000 to 10000 nM; in assay [2] (setting [5]), 1000 to 10000 nM; in assay [3], 1000 to 10000 nM. Further, the AC50 in assay [2] (setting [6]) lay within 1000 to 10000 nM.
With `Cn1cc2cc(-c3cc(Cl)c4cc(N5CCNCC5)cnc4n3)c(O)cc2n1` [Compound 102, 5-[4-chloro-6-(piperazin-1-yl)-1,8-naphthyridin-2-yl]-2-methylindazol-6-ol], the IC50 in assay [1] is 1000 to 10000 nM; in assay [2] (setting [4]) it was 100 to 1000 nM; in assay [2] (setting [5]) it was 100 to 1000 nM; in assay [3], 100 to 1000 nM. Moreover, the AC50 in assay [2] (setting [6]) was 100 to 1000 nM.
With `Cn1cc2cc(-c3cc(Cl)c4cc(N5CCNCC5)cnc4n3)cc(F)c2n1` [Compound 103], the IC50 in assay [1] lay within 1000 to 10000 nM; in assay [2] (setting [4]) it was 100 to 1000 nM; in assay [2] (setting [5]), 100 to 1000 nM; in assay [3], 100 to 1000 nM. Also, the concentration at half-maximal activity (AC50) in assay [2] (setting [6]) lay within 1000 to 10000 nM.
On to `Cc1c(O)c(-c2cc(Cl)c3cc(N4CCNCC4)cnc3n2)cc2cn(C)nc12` [Compound 154, 5-[4-chloro-6-(piperazin-1-yl)-1,8-naphthyridin-2-yl]-2,7-dimethylindazol-6-ol], for which the IC50 fell in the range of 1000 to 10000 nM in assay [1], 100 to 1000 nM in assay [2] (setting [4]), 100 to 1000 nM in assay [2] (setting [5]) and 100 to 1000 nM in assay [3]. Moreover, the half-maximal activity concentration (AC50) in assay [2] (setting [6]) is 100 to 1000 nM.
Consider `Cn1cc2cc(-c3cc(Cl)c4cc(N5CCNCC5)cnc4n3)c(O)c(F)c2n1` [Compound 155, 5-[4-chloro-6-(piperazin-1-yl)-1,8-naphthyridin-2-yl]-7-fluoro-2-methylindazol-6-ol], for which the IC50 in assay [1] is 100 to 1000 nM; in assay [2] (setting [4]), less than 100 nM; in assay [2] (setting [5]) it was less than 100 nM; in assay [3] it was 100 to 1000 nM. Besides, the AC50 in assay [2] (setting [6]) was less than 100 nM.
On to `Cc1c(O)c(-c2ncc3cc(N4CC[C@@H](N)C4)cnc3n2)cc2cn(C)nc12` [Compound 159, (R)-5-(6-(3-aminopyrrolidin-1-yl)pyrido[2,3-d]pyrimidin-2-yl)-2,7-dimethyl-2H-indazol-6-ol 2,2,2-trifluoroacetate], for which the 50% inhibitory concentration (IC50) is 100 to 1000 nM in assay [1], less than 100 nM in assay [2] (setting [4]), less than 100 nM in assay [2] (setting [5]) and 100 to 1000 nM in assay [3]. In assay [2] (setting [6]), the half-maximal activity concentration (AC50) was in the range of 100 to 1000 nM.
Consider `Cc1c(O)c(-c2ncc3cc(N4CC[C@H](N)C4)cnc3n2)cc2cn(C)nc12` [Compound 160, (S)-5-(6-(3-aminopyrrolidin-1-yl)pyrido[2,3-d]pyrimidin-2-yl)-2,7-dimethyl-2H-indazol-6-ol 2,2,2-trifluoroacetate], for which the IC50 lay in the range of 1000 to 10000 nM in assay [1], 100 to 1000 nM in assay [2] (setting [4]), 100 to 1000 nM in assay [2] (setting [5]) and 100 to 1000 nM in assay [3]. For the same molecule, in assay [2] (setting [6]), the AC50 was in the range of 100 to 1000 nM.
Consider `CNC1CCN(c2cnc3nc(-c4cc5cn(C)nc5c(C)c4O)nc(OC)c3c2)C1` (stereo not drawn) [Compound 161, 5-{4-methoxy-6-[3-(methylamino)pyrrolidin-1-yl]pyrido[2,3-d]pyrimidin-2-yl}-2,7-dimethylindazol-6-ol], for which the IC50 was in the range of 1000 to 10000 nM in assay [1], 100 to 1000 nM in assay [2] (setting [4]), 100 to 1000 nM in assay [2] (setting [5]) and 100 to 1000 nM in assay [3]. Moreover, the AC50 in assay [2] (setting [6]) lay in the range of 100 to 1000 nM.
Consider `COc1nc(-c2cc3cn(C)nc3c(C)c2O)nc2ncc(N3CCNCC3)cc12` [Compound 162, 5-[4-methoxy-6-(piperazin-1-yl)pyrido[2,3-d]pyrimidin-2-yl]-2,7-dimethylindazol-6-ol], for which the IC50 lay in the range of 1000 to 10000 nM in assay [1], 100 to 1000 nM in assay [2] (setting [4]), 100 to 1000 nM in assay [2] (setting [5]) and 100 to 1000 nM in assay [3]. Further, in assay [2] (setting [6]), the half-maximal activity concentration (AC50) is 100 to 1000 nM.
Consider `COc1nc(-c2cc3cn(C)nc3c(C)c2O)nc2ncc(N3CCC(N(C)C)CC3)cc12` [Compound 163, 5-{6-[4-(dimethylamino)piperidin-1-yl]-4-methoxypyrido[2,3-d]pyrimidin-2-yl}-2,7-dimethylindazol-6-ol], for which the concentration for half-maximal inhibition (IC50) in assay [1] was more than 10000 nM; in assay [2] (setting [4]) it was 1000 to 10000 nM; in assay [2] (setting [5]), 1000 to 10000 nM; in assay [3] it was more than 10000 nM. Besides, in assay [2] (setting [6]), the AC50 was more than 10000 nM.
As for `Cn1cc2cc(-c3cnc4cc(N5CCC(NC6CC6)C5)ccc4n3)c(O)c(F)c2n1` (stereo not drawn) [Compound 175, 5-[6-[3-(cyclopropylamino)pyrrolidin-1-yl]quinoxalin-2-yl]-7-fluoro-2-methyl-indazol-6-ol], the IC50 is 100 to 1000 nM in assay [1], less than 100 nM in assay [2] (setting [4]), less than 100 nM in assay [2] (setting [5]) and 100 to 1000 nM in assay [3]. Besides, the half-maximal activity concentration (AC50) in assay [2] (setting [6]) was less than 100 nM.
For `Cn1cc2cc(-c3cnc4cc(N5CC[C@H](NC6CC6)C5)ccc4n3)c(O)c(F)c2n1` [Compound 176, 5-[6-[(3S)-3-(cyclopropylamino)318quinoxaline-1-yl]318quinoxaline-2-yl]-7-fluoro-2-methyl-indazol-6-ol], the IC50 in assay [1] is 100 to 1000 nM; in assay [2] (setting [4]), less than 100 nM; in assay [2] (setting [5]) it was less than 100 nM; in assay [3], less than 100 nM. Besides, in assay [2] (setting [6]), the AC50 is less than 100 nM.
For `Cn1cc2cc(-c3cnc4cc(N5CC[C@@H](NC6CC6)C5)ccc4n3)c(O)c(F)c2n1` [Compound 177, 5-[6-[(3R)-3-(cyclopropylamino)318quinoxaline-1-yl]318quinoxaline-2-yl]-7-fluoro-2-methyl-indazol-6-ol], the IC50 in assay [1], in assay [2] (setting [4]), in assay [2] (setting [5]) and in assay [3] was less than 100 nM in each case. Besides, the AC50 in assay [2] (setting [6]) is less than 100 nM.
`Cn1cc2cc(-c3cnc4nc(N5CCC(NC6CC6)C5)ccc4n3)c(O)c(F)c2n1` (stereo not drawn) [Compound 178, 5-[6-[3-(cyclopropylamino)pyrrolidin-1-yl]pyrido[2,3-b]pyrazin-2-yl]-7-fluoro-2-methyl-indazol-6-ol]: the IC50 was 100 to 1000 nM in assay [1], less than 100 nM in assay [2] (setting [4]), less than 100 nM in assay [2] (setting [5]) and 100 to 1000 nM in assay [3]. Moreover, the concentration at half-maximal activity (AC50) in assay [2] (setting [6]) is 100 to 1000 nM.
With `Cc1nc2c(C)c(O)c(-c3cnc4cc(N5CCC(NC6CC6)C5)ccc4n3)cc2o1` (stereo not drawn) [Compound 182, 6-[6-[3-(cyclopropylamino)pyrrolidin-1-yl]quinoxalin-2-yl]-2,4-dimethyl-1,3-benzoxazol-5-ol], the IC50 in assay [1] was 100 to 1000 nM; in assay [2] (setting [4]) it was less than 100 nM; in assay [2] (setting [5]), less than 100 nM; in assay [3], less than 100 nM. Besides, in assay [2] (setting [6]), the AC50 was less than 100 nM.
On to `CNC1CCN(c2cnc3nc(-c4cc5cn(C)nc5c(C)c4O)ccc3n2)C1` (stereo not drawn) [Compound 192, 2,7-dimethyl-5-{2-[3-(methylamino)337pyrrolidine-1-yl]pyrido[2,3-b]pyrazin-6-yl}indazol-6-ol], for which the IC50 in assay [1], in assay [2] (setting [4]), in assay [2] (setting [5]) and in assay [3] was 100 to 1000 nM throughout. Moreover, in assay [2] (setting [6]), the AC50 was 100 to 1000 nM.
Regarding `CNC1CCN(c2cnc3nc(-c4cc5cn(C)nc5c(C)c4O)cc(Cl)c3n2)C1` (stereo not drawn) [Compound 193, 5-{8-chloro-2-[3-(methylamino)355pyrrolidine-1-yl]pyrido[2,3-b]pyrazin-6-yl}-2,7-dimethylindazol-6-ol], the IC50 in assay [1], in assay [2] (setting [4]), in assay [2] (setting [5]) and in assay [3] was 100 to 1000 nM throughout. Further, the half-maximal activity concentration (AC50) in assay [2] (setting [6]) was in the range of 100 to 1000 nM.
For the molecule `CNC1CCN(c2cnc3nc(-c4cc5cn(C)nc5c(C)c4O)cc(OC)c3n2)C1` (stereo not drawn) [Compound 194, 5-{8-methoxy-2-[3-(methylamino)360pyrrolidine-1-yl]pyrido[2,3-b]pyrazin-6-yl}-2,7-dimethylindazol-6-ol], the IC50 in assay [1] is more than 10000 nM; in assay [2] (setting [4]), 1000 to 10000 nM; in assay [2] (setting [5]), 1000 to 10000 nM; in assay [3], 1000 to 10000 nM. The AC50 in assay [2] (setting [6]) was more than 10000 nM.
For `Cc1c(O)c(-c2ccc3nc(N4C[C@@H](C)N[C@@H](C)C4)cnc3n2)cc2cn(C)nc12` [Compound 195, 5-{2-[(3R,5S)-3,5-dimethylpiperazin-1-yl]pyrido[2,3-b]pyrazin-6-yl}-2,7-dimethylindazol-6-ol], the IC50 in assay [1] is more than 10000 nM; in assay [2] (setting [4]), 1000 to 10000 nM; in assay [2] (setting [5]), 1000 to 10000 nM; in assay [3] it was 1000 to 10000 nM. The AC50 in assay [2] (setting [6]) was more than 10000 nM.
